Test results as given in patent US10800792B2, “Inhibitors of Bruton's tyrosine kinase and method of their use” (JANSSEN PHARMACEUTICA NV, priority 2015, dated 2020).

Target: unphosphorylated-BTK kinase domain (UP-BTK), GST-tagged human BTK (389-659aa) (Homo sapiens (Human), UniProt Q06187)
Assay: BTK kinase Lanthascreen binding assay
Conditions: unphosphorylated-BTK kinase domain, 50 nM Tracer 236, 60 minutes, pIC50 = negative log of the IC50 in molar
Procedure: BTK Kinase Lanthascreen Binding Assay:
A BTK kinase lanthascreen binding assay monitors compound binding to unphosphorylated-BTK kinase domain (UP-BTK), by competing with a fluorescent labeled tracer. […] Data were analyzed using Xlfit™ version 5.3 from ID Business Solutions (Guildford), Microsoft Excel add-in. pIC50 refers to the negative log of the IC50 in molar

Sequence of unphosphorylated-BTK kinase domain (UP-BTK), GST-tagged human BTK (389-659aa) (Q06187 389-659): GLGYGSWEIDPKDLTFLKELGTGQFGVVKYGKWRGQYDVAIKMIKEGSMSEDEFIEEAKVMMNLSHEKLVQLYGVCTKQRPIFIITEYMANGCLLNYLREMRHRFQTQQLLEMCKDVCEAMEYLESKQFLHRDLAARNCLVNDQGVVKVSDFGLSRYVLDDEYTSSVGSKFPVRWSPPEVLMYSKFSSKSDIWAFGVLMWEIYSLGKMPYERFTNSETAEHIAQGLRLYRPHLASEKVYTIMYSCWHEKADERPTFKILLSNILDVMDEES

Row | Structure (SMILES) | BTK_I_binding pIC50 | IC50 (read-out: BTK_I_binding pIC50 (converted)) [nM]
1 | Cc1cc(Oc2ccccc2)ccc1N1C(=O)Nc2c(C(=O)N[C@@H]3CCCN(C(=O)CCO)C3)sc3nccc1c23 (single isomer, unassigned) [Example 318, (R)—N-(1-(3-Hydroxypropanoyl)piperidin-3-yl)-5-(*R)-(2-methyl-4-phenoxyphenyl)-4-oxo-4,5-dihydro-3H-1-thia-3,5,8-triazaacenaphthylene-2-carboxamide] | 5.8 | –
2 | Cc1cc(Oc2ccccc2)ccc1N1C(=O)Nc2c(C(=O)N[C@H]3CCOC3)sc3nccc1c23 (single isomer, unassigned) [Example 323, (S)-5-(*R)-(2-Methyl-4-phenoxyphenyl)-4-oxo-N-(tetrahydrofuran-3-yl)-4,5-dihydro-3H-1-thia-3,5,8-triazaacenaphthylene-2-carboxamide] | 5.7 | –
3 | CCC(=O)N1CC[C@@H](NC(=O)c2sc3nccc4c3c2NC(=O)N4c2ccc(Oc3ccccc3)cc2C)C1 (single isomer, unassigned) [Example 325, (R)-5-(*R)-(2-Methyl-4-phenoxyphenyl)-4-oxo-N-(1-propionylpyrrolidin-3-yl)-4,5-dihydro-3H-1-thia-3,5,8-triazaacenaphthylene-2-carboxamide] | 5.7 | –
4 | CCC(=O)N1CCC[C@@H](NC(=O)c2sc3nccc4c3c2NC(=O)N4c2ccc(Oc3ccccc3)cc2C)C1 (single isomer, unassigned) [Example 345, (R)-5-(*R)-(2-Methyl-4-phenoxyphenyl)-4-oxo-N-(1-propionylpiperidin-3-yl)-4,5-dihydro-3H-1-thia-3,5,8-triazaacenaphthylene-2-carboxamide] | <5 | –
5 | Cc1cc(Oc2ccccc2)ccc1N1C(=O)Nc2c(C(=O)N[C@@H]3CCCN(C(=O)/C(C#N)=C/C4CC4)C3)sc3nccc1c23 (single isomer, unassigned) [Example 365, (R,E)-N-(1-(2-Cyano-3-cyclopropylacryloyl)piperidin-3-yl)-5-(*R)-(2-methyl-4-phenoxyphenyl)-4-oxo-4,5-dihydro-3H-1-thia-3,5,8-triazaacenaphthylene-2-carboxamide] | – | 50.1
6 | Cc1cc(Oc2ccccc2)ccc1N1C(=O)Nc2c(C(=O)N[C@@H]3CCCN(C(=O)/C(C#N)=C/C4(C)COC4)C3)sc3nccc1c23 (single isomer, unassigned) [Example 387, (R,E)-N-(1-(2-Cyano-3-(3-methyloxetan-3-yl)acryloyl)piperidin-3-yl)-5-(*R)-(2-methyl-4-phenoxyphenyl)-4-oxo-4,5-dihydro-3H-1-thia-3,5,8-triazaacenaphthylene-2-carboxamide] | 7.8 | –
7 | Cc1cc(Oc2ccccc2)ccc1N1C(=O)Nc2c(C(=O)N[C@@H]3CCCN(C(=O)/C(C#N)=C/C(C)(C)C)C3)sc3nccc1c23 (single isomer, unassigned) [Example 398, (R,E)-N-(1-(2-Cyano-4,4-dimethylpent-2-enoyl)piperidin-3-yl)-5-(*R)-(2-methyl-4-phenoxyphenyl)-4-oxo-4,5-dihydro-3H-1-thia-3,5,8-triazaacenaphthylene-2-carboxamide] | 6.6 | –
8 | Cc1cc(Oc2ccccc2)ccc1N1C(=O)Nc2c(C(=O)N[C@H]3CCNC(C)C3)sc3nccc1c23 (single isomer, unassigned) [Example 432, 5-(*S)-(2-Methyl-4-phenoxyphenyl)-N-((4*S)-2-methylpiperidin-4-yl)-4-oxo-4,5-dihydro-3H-1-thia-3,5,8-triazaacenaphthylene-2-carboxamide] | 7.0 | –
9 | Cc1cc(Oc2ccccc2)ccc1N1C(=O)Nc2c(C(=O)N[C@H]3CCNC(C)C3)sc3nccc1c23 (single isomer, unassigned) [Example 433, 5-(*R)-(2-Methyl-4-phenoxyphenyl)-N-((4*S)-2-methylpiperidin-4-yl)-4-oxo-4,5-dihydro-3H-1-thia-3,5,8-triazaacenaphthylene-2-carboxamide] | 5.4 | –
10 | Cc1cc(Oc2ccccc2)ccc1N1C(=O)Nc2c(C(=O)N[C@@H]3CCNC(C)C3)sc3nccc1c23 (single isomer, unassigned) [Example 434, 5-(*S)-(2-Methyl-4-phenoxyphenyl)-N-((4*R)-2-methylpiperidin-4-yl)-4-oxo-4,5-dihydro-3H-1-thia-3,5,8-triazaacenaphthylene-2-carboxamide] | 7.3 | –
11 | Cc1cc(Oc2ccccc2)ccc1N1C(=O)Nc2c(C(=O)N[C@@H]3CCNC(C)C3)sc3nccc1c23 (single isomer, unassigned) [Example 435, 5-(*R)-(2-Methyl-4-phenoxyphenyl)-N-((4*R)-2-methylpiperidin-4-yl)-4-oxo-4,5-dihydro-3H-1-thia-3,5,8-triazaacenaphthylene-2-carboxamide] | 5.9 | –
12 | CC(C)=C(Cl)C(=O)N1CCC[C@@H](NC(=O)c2sc3nccc4c3c2NC(=O)N4c2ccc(Oc3ccccc3)cc2C)C1 (single isomer, unassigned) [Example 438, (R)—N-(1-(2-Chloro-3-methylbut-2-enoyl)piperidin-3-yl)-5-(*S)-(2-methyl-4-phenoxyphenyl)-4-oxo-4,5-dihydro-3H-1-thia-3,5,8-triazaacenaphthylene-2-carboxamide] | 6.7 | –
13 | CC(C)=C(Cl)C(=O)N1CCC[C@@H](NC(=O)c2sc3nccc4c3c2NC(=O)N4c2ccc(Oc3ccccc3)cc2C)C1 (single isomer, unassigned) [Example 439, (R)—N-(1-(2-Chloro-3-methylbut-2-enoyl)piperidin-3-yl)-5-(*R)-(2-methyl-4-phenoxyphenyl)-4-oxo-4,5-dihydro-3H-1-thia-3,5,8-triazaacenaphthylene-2-carboxamide] | 5.7 | –
14 | C=CC(=O)N1CC[C@@H](N(C)C(=O)c2sc3nccc4c3c2NC(=O)N4c2ccc(Oc3ccccc3)cc2C)C1 (single isomer, unassigned) [Example 441, (R)—N-(1-Acryloylpyrrolidin-3-yl)-N-methyl-5-(*S)-(2-methyl-4-phenoxyphenyl)-4-oxo-4,5-dihydro-3H-1-thia-3,5,8-triazaacenaphthylene-2-carboxamide] | 5.9 | –
15 | C=CC(=O)N1CC[C@@H](N(C)C(=O)c2sc3nccc4c3c2NC(=O)N4c2ccc(Oc3ccccc3)cc2C)C1 (single isomer, unassigned) [Example 442, (R)—N-(1-Acryloylpyrrolidin-3-yl)-N-methyl-5-(*R)-(2-methyl-4-phenoxyphenyl)-4-oxo-4,5-dihydro-3H-1-thia-3,5,8-triazaacenaphthylene-2-carboxamide] | 6.9 | –
16 | COC(C)(C)/C=C(\C#N)C(=O)N1CCC[C@@H](NC(=O)c2sc3nccc4c3c2NC(=O)N4c2ccc(Oc3ccccc3)cc2C)C1 (single isomer, unassigned) [Example 450, (R,*E)-N-(1-(2-Cyano-4-methoxy-4-methylpent-2-enoyl)piperidin-3-yl)-5-(*S)-(2-methyl-4-phenoxyphenyl)-4-oxo-4,5-dihydro-3H-1-thia-3,5,8-triazaacenaphthylene-2-carboxamide] | 7.6 | –
17 | Cc1cc(Oc2ccccc2)ccc1N1C(=O)Nc2c(C(=O)N[C@@H]3CNC(=O)C3)sc3nccc1c23 (single isomer, unassigned) [Example 469, (*S)-5-(*S)-(2-Methyl-4-phenoxyphenyl)-4-oxo-N-(5-oxopyrrolidin-3-yl)-4,5-dihydro-3H-1-thia-3,5,8-triazaacenaphthylene-2-carboxamide] | 7.1 | –
18 | Cc1cc(Oc2ccccc2)ccc1N1C(=O)Nc2c(C(=O)N[C@@H]3CNC(=O)C3)sc3nccc1c23 (single isomer, unassigned) [Example 470, (*S)-5-(*R)-(2-Methyl-4-phenoxyphenyl)-4-oxo-N-(5-oxopyrrolidin-3-yl)-4,5-dihydro-3H-1-thia-3,5,8-triazaacenaphthylene-2-carboxamide] | 5.6 | –
19 | Cc1cc(Oc2ccccc2)ccc1N1C(=O)Nc2c(C(=O)N[C@H]3CNC(=O)C3)sc3nccc1c23 (single isomer, unassigned) [Example 471, (*R)-5-(*S)-(2-Methyl-4-phenoxyphenyl)-4-oxo-N-(5-oxopyrrolidin-3-yl)-4,5-dihydro-3H-1-thia-3,5,8-triazaacenaphthylene-2-carboxamide] | 5.9 | –
20 | Cc1cc(Oc2ccccc2)ccc1N1C(=O)Nc2c(C(=O)N[C@H]3CNC(=O)C3)sc3nccc1c23 (single isomer, unassigned) [Example 472, (*R)-5-(*R)-(2-Methyl-4-phenoxyphenyl)-4-oxo-N-(5-oxopyrrolidin-3-yl)-4,5-dihydro-3H-1-thia-3,5,8-triazaacenaphthylene-2-carboxamide] | 7.4 | –
21 | C/C=C/C(=O)N1CCC[C@@H](NC(=O)c2sc3nccc4c3c2NC(=O)N4c2ccc(Oc3ccccc3)cc2C)C1 (single isomer, unassigned) [Example 473, (R,*E)-N-(1-(But-2-enoyl)piperidin-3-yl)-5-(*S)-(2-methyl-4-phenoxyphenyl)-4-oxo-4,5-dihydro-3H-1-thia-3,5,8-triazaacenaphthylene-2-carboxamide] | 5.9 | –
22 | C/C=C/C(=O)N1CCC[C@@H](NC(=O)c2sc3nccc4c3c2NC(=O)N4c2ccc(Oc3ccccc3)cc2C)C1 (single isomer, unassigned) [Example 474, (R,*E)-N-(1-(But-2-enoyl)piperidin-3-yl)-5-(*R)-(2-methyl-4-phenoxyphenyl)-4-oxo-4,5-dihydro-3H-1-thia-3,5,8-triazaacenaphthylene-2-carboxamide] | 7.6 | –
